Literature values as cited in patent US5530141A, “2,4-diaryl-1,3-dithiolanes; 2,4-diaryl-1,3-dioxolanes; 2,4-diaryl-1,3-oxathiolanes; and 2,5-diaryl-1,3-oxathiolanes for the treatment of disorders mediated by platelet activating factor or products of 5-lipoxygenase” (Center for Innovative Technology, priority 1992, dated 1996).

Key:
[1] = cited from earlier work
[2] = tested on: PAF receptor sites; conditions: cited from earlier work
[3] = tested on: PAF-induced rat cutaneous vascular permeability; conditions: cited from earlier work
[4] = tested on: 5-lipoxygenase; conditions: cited from earlier work

| Compound | plasma half life [1] | inhibits the binding of tritiated PAF to PAF receptor sites ([2]; Hwang et al. 1985) | potency of trans-L-652,731 relative to cis-L-652,731 ([2]; more potent than cis-L-652,731) | inhibition of PAF-induced rat cutaneous vascular permeability ([3]; dosage of 30 mg/kg body weight, rat) | oral activity ([3]; oral) | effect on the enzyme 5-lipoxygenase [4] |
| --- | --- | --- | --- | --- | --- | --- |
| 1-O-alkyl-2-acetyl-sn-glycerol-3-phosphorylcholine [PAF] | 2 to 4 min | – | – | – | – | – |
| COc1cc([C@H]2CC[C@H](c3cc(OC)c(OC)c(OC)c3)O2)cc(OC)c1OC (relative stereo) [L-652,731, trans-2,5-bis-(3,4,5-trimethoxyphenyl) tetrahydrofuran] | – | inhibits the binding of tritiated PAF to PAF receptor sites | approximately 1000 times | inhibit PAF-induced rat cutaneous vascular permeability | orally active | no effect on the enzyme 5-lipoxygenase |
